Assays:
ERβ = ERβ (Homo sapiens, UniProt Q92731); test: ER affinity assay (ERβ), [3H]-E2 displacement; settings: Relative Binding Affinity, E2 = 100%; recombinant human protein
Description: (§1) The binding affinity of selected compounds to the ERα and ERβ was determined according to Zimmermann et al. (Zimmermann, J. et al., 3. Steroid Biochem. Mol. Biol., 94:57-66 (2005)) using recombinant human proteins. Briefly, 0.25 μM of ERα or ERβ, respectively, were incubated with [^3H]-E2 (10 nM) and test compound for 1 h at room temperature. The potential inhibitors were dissolved in DMSO (5% final concentration). Evaluation of non-specific-binding was performed with diethylstilbestrol (10 μM). After incubation, ligand-receptor complexes were selectively bound to hydroxyapatite (5 g/60 ml TE-buffer). The formed complex was separated, washed and resuspended in ethanol. For radiodetection, scintillator cocktail (Quickszint 212, Zinsser Analytic, Frankfurt) was added and the samples were measured in a liquid scintillation counter (Rack Beta Primo 1209, Wallac, Turku). […] The compound concentration to displace 50% of the receptor bound [^3H]-E2 were determined. Unlabelled E2 was used as a reference. For determination of the relative binding affinity (RBA) the ratio was calculated according to the following equation: […]
(§2) After the assay was established and validated a modification was made to increase throughput. […] Results were reported as RBA ranges.

ERα = target: T1, ERα (Homo sapiens, UniProt P03372); test: ER affinity assay (ERα), [3H]-E2 displacement; settings: Relative Binding Affinity, E2 = 100%; recombinant human protein
T1 sequence (P03372 1-595): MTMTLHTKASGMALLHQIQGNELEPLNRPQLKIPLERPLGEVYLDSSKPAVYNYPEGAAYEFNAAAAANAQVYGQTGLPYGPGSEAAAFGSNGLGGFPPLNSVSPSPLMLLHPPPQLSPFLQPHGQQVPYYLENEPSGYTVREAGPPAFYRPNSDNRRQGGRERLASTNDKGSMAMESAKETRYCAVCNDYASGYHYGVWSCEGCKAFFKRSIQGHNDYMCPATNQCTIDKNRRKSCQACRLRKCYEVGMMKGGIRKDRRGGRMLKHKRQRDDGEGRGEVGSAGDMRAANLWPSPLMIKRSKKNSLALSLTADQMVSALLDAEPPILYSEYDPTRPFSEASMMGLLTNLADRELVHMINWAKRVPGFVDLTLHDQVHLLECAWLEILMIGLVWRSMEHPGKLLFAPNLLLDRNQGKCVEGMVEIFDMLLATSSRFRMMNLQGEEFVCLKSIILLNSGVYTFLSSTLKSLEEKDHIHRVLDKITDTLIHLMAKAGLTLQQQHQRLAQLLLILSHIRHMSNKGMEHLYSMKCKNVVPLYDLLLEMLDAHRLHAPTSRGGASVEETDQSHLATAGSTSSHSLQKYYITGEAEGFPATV
Description: as §1, §2

17β-HSD1 = target: T2, 17β-HSD1 (Homo sapiens, UniProt P14061); test: Inhibition of 17β-HSD1 in cell-free assay; format: biochemical; settings: human placenta, cytosolic fraction, substrate E1 500 nM, cofactor NADH 500 μM
T2 construct: For the partial purification of 17β-HSD1, the cytosolic fraction was precipitated with ammonium sulfate; from tissue; host or cells: human placenta, cytosolic fraction
T2 sequence (P14061 1-328): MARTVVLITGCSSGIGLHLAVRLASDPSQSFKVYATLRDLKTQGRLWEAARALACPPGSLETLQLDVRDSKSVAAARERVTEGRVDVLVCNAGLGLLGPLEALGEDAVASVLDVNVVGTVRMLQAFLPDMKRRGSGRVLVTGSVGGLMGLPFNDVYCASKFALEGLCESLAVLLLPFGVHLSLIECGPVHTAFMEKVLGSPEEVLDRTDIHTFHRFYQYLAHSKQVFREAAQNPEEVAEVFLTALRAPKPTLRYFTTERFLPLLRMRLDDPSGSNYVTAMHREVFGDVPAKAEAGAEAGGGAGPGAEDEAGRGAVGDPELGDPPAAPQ
Description: (§3) Fresh human placenta was homogenized. Cytosolic and microsomal fractions were separated by centrifugation at 1000 g, 10000 g and 150000 g. 17β-HSD2 was obtained directly from the microsomal fraction. For the partial purification of 17β-HSD1, the cytosolic fraction was precipitated with ammonium sulfate. Aliquots containing 17β-HSD1 or 17β-HSD2 were stored frozen.
The 17β-HSD1 inhibition assay was performed similarly to the 17β-HSD2 test. The cytosolic fraction was incubated with NADH [500 μM], test compound and a mixture of unlabelled- and [^3H]-E1 (final concentration: 500 nM, 0.15 μCi) for 10 min at 37° C. Further treatment of the samples and HPLC separation was carried out as mentioned above for 17β-HSD2.

17β-HSD2 = target: T3, 17β-HSD2 (Homo sapiens, UniProt P37059); test: Inhibition of 17β-HSD2 in cell-free assay; format: biochemical; parameters: 17β-HSD2 was obtained directly from the microsomal fraction; from tissue; host or cells: human placenta, microsomal fraction; settings: human placenta, microsomal fraction, substrate E2 500 nM, cofactor NAD+ 1500 μM; for inhibition at 1 µM: inhibitor concentration 1 μM
T3 sequence (P37059 1-387): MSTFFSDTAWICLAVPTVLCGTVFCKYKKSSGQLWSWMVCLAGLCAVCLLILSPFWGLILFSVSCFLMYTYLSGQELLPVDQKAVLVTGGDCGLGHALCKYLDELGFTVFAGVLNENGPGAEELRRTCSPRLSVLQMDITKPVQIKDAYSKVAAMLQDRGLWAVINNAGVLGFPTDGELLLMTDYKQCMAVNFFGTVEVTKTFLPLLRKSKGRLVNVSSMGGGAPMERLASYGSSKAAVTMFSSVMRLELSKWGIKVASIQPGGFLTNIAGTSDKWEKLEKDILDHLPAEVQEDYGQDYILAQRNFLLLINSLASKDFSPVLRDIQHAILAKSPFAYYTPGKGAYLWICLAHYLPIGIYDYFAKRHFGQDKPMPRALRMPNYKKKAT
Description: as §3
Inhibitor stock solutions were prepared in DMSO. Final concentration of DMSO was adjusted to 1% in all samples. The enzymatic reaction was started by addition of a mixture of unlabelled- and [^3H]-E2 (final concentration: 500 nM, 0.11 μCi). After 20 min at 37° C., the incubation was stopped with HgCl2 and the mixture was extracted with ether. After evaporation, the steroids were dissolved in acetonitrile. E1 and E2 were separated using acetonitrile/water (45:55) as mobile phase in a C18 RP chromatography column (Nucleodur C18, 3 μm, Macherey-Nagel, Duren) connected to a HPLC-system (Agilent 1100 Series, Agilent Technologies, Waldbronn). Detection and quantification of the steroids were performed using a radioflow detector (Berthold Technologies, Bad Wildbad). The conversion rate was calculated according to the following equation: […]

Sequence of ERβ (Q92731 whole entry): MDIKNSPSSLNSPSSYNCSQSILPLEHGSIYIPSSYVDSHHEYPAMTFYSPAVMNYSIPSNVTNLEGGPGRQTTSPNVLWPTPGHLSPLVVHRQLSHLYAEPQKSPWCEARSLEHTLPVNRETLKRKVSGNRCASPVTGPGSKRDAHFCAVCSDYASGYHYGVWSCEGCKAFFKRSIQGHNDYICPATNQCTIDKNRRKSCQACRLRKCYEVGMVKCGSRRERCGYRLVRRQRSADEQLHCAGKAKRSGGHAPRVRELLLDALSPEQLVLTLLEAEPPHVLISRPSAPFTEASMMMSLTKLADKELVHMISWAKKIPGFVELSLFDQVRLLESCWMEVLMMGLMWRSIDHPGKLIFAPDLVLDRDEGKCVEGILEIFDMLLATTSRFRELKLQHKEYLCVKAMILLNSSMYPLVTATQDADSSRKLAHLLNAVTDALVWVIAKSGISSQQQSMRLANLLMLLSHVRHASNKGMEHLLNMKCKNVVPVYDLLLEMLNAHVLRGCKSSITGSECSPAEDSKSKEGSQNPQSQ

Row | Structure (SMILES) | ERβ RBA (%) (ERβ) | ERα RBA (%) (ERα) | further results
1 | COc1cccc(CN(C)C(=O)c2ccc(-c3cccc(OC)c3)cc2)c1 [compound 1, 3′-Methoxy-N-(3-methoxybenzyl)-N-methylbiphenyl-4-carboxamide] | <0.1 | <0.1 | 
2 | Cc1cccc(-c2ccc(C(=O)N(C)Cc3cccc(O)c3)cc2)c1 [compound 4, N-(3-hydroxybenzyl)-N,3′-dimethylbiphenyl-4-carboxamide] | <0.1 | <0.1 | 
3 | COc1ccc(-c2cccc(C(=O)N(C)Cc3cccc(OC)c3)c2)cc1 [compound 5, 4′-Methoxy-N-(3-methoxybenzyl)-N-methylbiphenyl-3-carboxamide] |  |  | % inhibition 17β-HSD1 (17β-HSD1; inhibitor concentration 1 μM): n.i.^e; inhibition at 1 µM (17β-HSD2): 11%
4 | CN(Cc1cccc(O)c1)C(=O)c1cccc(-c2ccc(O)cc2)c1 [compound 6, 4′-Hydroxy-N-(3-hydroxybenzyl)-N-methylbiphenyl-3-carboxamide] | <0.1 | <0.1 | 
5 | CN(Cc1cccc(O)c1)C(=O)c1cccc(-c2cccc(O)c2)c1 [compound 8, 3′-Hydroxy-N-(3-hydroxybenzyl)-N-methylbiphenyl-3-carboxamide] |  |  | IC50 (17β-HSD1): 3.8 µM; IC50 (17β-HSD2): 0.481 µM
6 | COc1cccc(CCN(C)C(=O)c2ccc(-c3cccc(OC)c3)s2)c1 [compound 17, N-(3-Methoxyphenethyl)-5-(3-methoxyphenyl)-N-methylthiophene-2-carboxamide] |  |  | % inhibition 17β-HSD1 (17β-HSD1; inhibitor concentration 1 μM): n.i.^e; inhibition at 1 µM (17β-HSD2): 31%
7 | CN(CCc1cccc(O)c1)C(=O)c1ccc(-c2cccc(O)c2)s1 [compound 18, N-(3-Hydroxyphenethyl)-5-(3-hydroxyphenyl)-N-methylthiophene-2-carboxamide] |  |  | inhibition at 1 µM (17β-HSD1; inhibitor concentration 1 μM): 23%; inhibition at 1 µM (17β-HSD2): 37%
8 | CN(Cc1cccc(O)c1)C(=O)c1ccc(-c2ccccc2)s1 [compound 30, N-(3-Hydroxybenzyl)-N-methyl-5-phenylthiophene-2-carboxamide] | <0.1 | <0.1 | 
9 | COc1cccc(-c2ccc(C(=O)N(C)Cc3ccccc3)s2)c1 [compound 33, N-Benzyl-5-(3-methoxyphenyl)-N-methylthiophene-2-carboxamide] | <0.1 | <0.1 | 
10 | COc1ccc(-c2ccc(C(=O)N(C)Cc3ccccc3)s2)cc1 [compound 35, N-Benzyl-5-(4-methoxyphenyl)-N-methylthiophene-2-carboxamide] | <0.1 | <0.1 | 
11 | CN(Cc1cccc(O)c1)C(=O)c1ccc(-c2ccc(F)cc2)s1 [compound 42, 5-(4-Fluorophenyl)-N-(3-hydroxybenzyl)-N-methylthiophene-2-carboxamide] | <0.1 | <0.1 | 
12 | COc1cccc(-c2ccc(C(=O)N(C)Cc3cccc(O)c3)s2)c1 [compound 45, N-(3-Hydroxybenzyl)-5-(3-methoxyphenyl)-N-methylthiophene-2-carboxamide] | <0.1 | <0.1 | IC50 (17β-HSD1): 23.3 µM
13 | COc1cccc(-c2ccc(C(=O)N(C)c3cccc(OC)c3)s2)c1 [compound 47, N,5-bis(3-Methoxyphenyl)-N-methylthiophene-2-carboxamide] | <0.1 | <0.1 | 
14 | Cc1cccc(-c2ccc(C(=O)N(C)c3ccccc3F)s2)c1 [compound 74, N-(2-fluorophenyl)-N-methyl-5-m-tolylthiophene-2-carboxamide] | <0.1 | <0.1 | 

Second part, led by results:

Row | ERβ RBA (%) (ERβ) | ERα RBA (%) (ERα) | Structure (SMILES) | further results
15 | <0.1 | <0.1 | COc1ccc(-c2ccc(C(=O)N(C)Cc3cccc(OC)c3)s2)cc1 [compound 25, N-(3-Methoxybenzyl)-5-(4-methoxyphenyl)-N-methylthiophene-2-carboxamide] | 
16 | <0.1 | <0.1 | COc1ccc(-c2ccc(C(=O)N(C)c3cccc(OC)c3)s2)cc1 [compound 55, N-(3-Methoxyphenyl)-5-(4-methoxyphenyl)-N-methylthiophene-2-carboxamide] | 
17 | <0.1 | <0.1 | COc1cccc(N(C)C(=O)c2ccc(-c3cccc(SC)c3)s2)c1 [compound 63, N-(3-methoxyphenyl)-N-methyl-5-(3-(methylthio)phenyl)thiophene-2-carboxamide] | 
18 | <0.1 | <0.1 | COc1cccc(N(C)C(=O)c2ccc(-c3cccc(C)c3)s2)c1 [compound 64, N-(3-methoxyphenyl)-N-methyl-5-m-tolylthiophene-2-carboxamide] | 
19 | <0.1 | <0.1 | COc1cccc(N(C)C(=O)c2ccc(-c3c(F)ccc(OC)c3F)s2)c1 [compound 65, 5-(2,6-Difluoro-3-methoxyphenyl)-N-(3-methoxyphenyl)-N-methylthiophene-2-carboxamide] | 
20 | <0.1 | <0.1 | COc1cccc(N(C)C(=O)c2ccc(-c3cccc(C)c3F)s2)c1 [compound 66, 5-(2-Fluoro-3-methylphenyl)-N-(3-methoxyphenyl)-N-methylthiophene-2-carboxamide] | 
21 | <0.1 | <0.1 | COc1cccc(-c2ccc(C(=O)N(C)c3ccccc3)s2)c1 [compound 67, 5-(3-Methoxyphenyl)-N-methyl-N-phenylthiophene-2-carboxamide] | 
22 | <0.1 | <0.1 | COc1cccc(-c2ccc(C(=O)N(C)c3cccc(C)c3)s2)c1F [compound 72, 5-(2-Fluoro-3-methoxyphenyl)-N-methyl-N-(m-tolylthiophene)-2-carboxamide] | 
